Measurements published in ChEMBL document CHEMBL5143684, “Design, synthesis and biological evaluation of novel 5-methyl-2,4,5,6-tetrahydropyrrolo[3,4-c]pyrazole derivatives as potent potassium-competitive acid blockers” (Bioorg Med Chem, 2022).
pIC50: −log10 of the molar value.

What was measured:
[1] = Inhibition of rabbit stomach K+ stimulated H(+)/K(+) ATPase activity incubated for 30 mins in presence of ATP and KCl by malachite green reagent based assay; assay type: tissue-based, Oryctolagus cuniculus
[2] = Inhibition of gastric acid secretion in histamine induced Sprague-Dawley rat at 1 mg/kg, iv pretreated with compound for 15 mins followed by histamine dihydrochloride injection and measured after 3 hrs; assay type: functional; details: 3.25 h, time 195 min
[3] = Elimination half life in Sprague-Dawley rat at 8 mg/kg, po by LC-MS/MS analysis; assay type: ADME, organism-based; details: in vivo, read-out: beta t1/2 (converted)
[4] = Oral bioavailability in Sprague-Dawley rat at 8 mg/kg by LC-MS/MS analysis; assay type: ADME, organism-based; details: in vivo
[5] = Cmax in Sprague-Dawley rat at 8 mg/kg, po by LC-MS/MS analysis; assay type: ADME, organism-based; set-up: dose 8 mg/kg, route po; details: in vivo
[6] = Terminal half life in Sprague-Dawley rat at 2 mg/kg, iv by LC-MS/MS analysis; assay type: ADME, organism-based; details: in vivo, read-out: beta t1/2 (converted)
[7] = AUC (0 to infinity) in Sprague-Dawley rat at 2 mg/kg, iv by LC-MS/MS analysis; assay type: ADME, organism-based; set-up: time infinity, dose 2 mg/kg, route iv; details: in vivo
[8] = AUC (0 to infinity) in Sprague-Dawley rat at 8 mg/kg, po by LC-MS/MS analysis; assay type: ADME, organism-based; set-up: time infinity, dose 8 mg/kg, route po; details: in vivo
[9] = AUC (0 to infinity) in Sprague-Dawley rat at 0.75 mg/kg, iv measured up to 24 hrs; assay type: ADME, organism-based; set-up: dose 0.75 mg/kg, time < 24 hrs, route iv; details: in vivo
[10] = Cmax in Sprague-Dawley rat at 2 mg/kg, po; assay type: ADME, organism-based; set-up: dose 2 mg/kg, route po; details: in vivo
[11] = Oral bioavailability in Sprague-Dawley rat at 2 mg/kg; assay type: ADME, organism-based; details: in vivo
[12] = Half life in Sprague-Dawley rat at 0.75 mg/kg, iv measured up to 24 hrs; assay type: ADME, organism-based; details: in vivo
[13] = AUC (0 to infinity) in Sprague-Dawley rat at 2 mg/kg, po; assay type: ADME, organism-based; set-up: time infinity, dose 2 mg/kg, route po; details: in vivo
[14] = Half life in Sprague-Dawley rat at 2 mg/kg, po; assay type: ADME, organism-based; details: in vivo

| SMILES | pIC50 [1] | other results |
| --- | --- | --- |
| CN1Cc2nn(Cc3cccc(OCCC(=O)O)c3)c(-c3ccccc3F)c2C1 | 5.74 |  |
| CC(C)Oc1ccc(-c2c3c(nn2Cc2cccc(O)c2)CN(C)C3)cc1 | < 5.00 |  |
| CN1Cc2nn(Cc3ccoc3)c(-c3ccccc3F)c2C1 | 5.49 |  |
| CN1Cc2c(-c3ccccc3F)nn(S(=O)(=O)c3ccccc3)c2C1 | < 5.00 |  |
| COC(=O)c1ccccc1-c1c2c(nn1Cc1cccc(O)c1)CN(C)C2 | < 5.00 |  |
| CN1Cc2cc(S(=O)(=O)c3ccccc3)n(-c3ccccc3F)c2C1 | 5.68 |  |
| CN1Cc2nn(Cc3cc4ccccc4o3)c(-c3ccccc3F)c2C1 | 5.37 |  |
| CN1Cc2nn(Cc3cccc(O)c3)c(-c3cccc(Cl)c3)c2C1 | 5.20 |  |
| CN1Cc2nn(Cc3ccsc3)c(-c3ccccc3F)c2C1 | 5.67 |  |
| CN1Cc2nn(S(=O)(=O)c3cccnc3)c(-c3ccccc3F)c2C1 | 5.96 |  |
| CN1Cc2nn(Cc3cccc(O)c3)c(-c3ccc(O)cc3)c2C1 | 5.45 |  |
| CN1Cc2nn(S(=O)(=O)c3ccccc3)c(-c3ccccc3F)c2C1 | 5.99 |  |
| CN1Cc2nn(Cc3cccc(N)c3)c(-c3ccccc3F)c2C1 | 6.05 |  |
| CN1Cc2nn(Cc3cccc(O)c3)c(-c3cccc(O)c3)c2C1 | 5.91 |  |
| CN1Cc2nn(Cc3cccc(O)c3)c(-c3ccccc3CO)c2C1 | < 5.00 |  |
| CN1Cc2nn(Cc3cccc(O)c3)c(-c3cccnc3)c2C1 | 5.38 |  |
| CN1Cc2nn(Cc3cccc(O)c3)c(-c3ccccc3)c2C1 | 5.73 |  |

These reach a higher pIC50 [1]. Values come first.

| pIC50 [1] | SMILES | other results |
| --- | --- | --- |
| 6.06 | CN1Cc2nn(Cc3ccccc3)c(-c3ccccc3F)c2C1 |  |
| 6.09 | CN1Cc2nn(Cc3ccccc3F)c(-c3ccccc3F)c2C1 |  |
| 6.13 | CN1Cc2nn(Cc3cccc(OCC(N)=O)c3)c(-c3ccccc3F)c2C1 |  |
| 6.17 | CN1Cc2nn(Cc3cccnc3)c(-c3ccccc3F)c2C1 |  |
| 6.23 | CN1Cc2nn(Cc3ccc(F)cc3)c(-c3ccccc3F)c2C1 |  |
| 6.31 | CN1Cc2nn(Cc3cccc(O)c3)c(-c3cccnc3F)c2C1 |  |
| 6.36 | CN1Cc2nn(Cc3cccc(-c4cccc(C(F)(F)F)c4)c3)c(-c3ccccc3F)c2C1 |  |
| 6.38 | Cc1ccc(-c2c3c(nn2Cc2cccc(O)c2)CN(C)C3)c(F)c1 |  |
| 6.39 | CN1Cc2nn(Cc3cccc(N4CCOCC4)c3)c(-c3ccccc3F)c2C1 |  |
| 6.40 | CN1Cc2nn(Cc3cccc(-c4cccc(C#N)c4)c3)c(-c3ccccc3F)c2C1 |  |
| 6.41 | CN1Cc2nn(Cc3cccc(OCCC(N)=O)c3)c(-c3ccccc3F)c2C1 |  |
| 6.42 | CN1Cc2nn(Cc3cccc(-c4ccccc4F)c3)c(-c3ccccc3F)c2C1 |  |
| 6.45 | CN1Cc2nn(Cc3cccc(Cl)c3)c(-c3ccccc3F)c2C1 |  |
| 6.47 | CN1Cc2nn(Cc3cccc(F)c3)c(-c3ccccc3F)c2C1 |  |
| 6.47 | CN1Cc2nn(Cc3cccc(-c4ccc(F)cc4)c3)c(-c3ccccc3F)c2C1 |  |
| 6.48 | CN1Cc2nn(Cc3cccc(-c4cccc(F)c4)c3)c(-c3ccccc3F)c2C1 |  |
| 6.50 | CN1Cc2nn(Cc3cccc(-c4cccc(N(C)C)c4)c3)c(-c3ccccc3F)c2C1 |  |
| 6.54 | COc1cccc(Cn2nc3c(c2-c2ccccc2F)CN(C)C3)c1 |  |
| 6.85 | CN1Cc2nn(Cc3cccc([N+](=O)[O-])c3)c(-c3ccccc3F)c2C1 |  |
| 6.89 | CN1Cc2nn(Cc3cccc(-c4cccc(S(C)(=O)=O)c4)c3)c(-c3ccccc3F)c2C1 |  |
| 6.98 | CN1Cc2nn(Cc3cccc(O)c3)c(-c3ccccc3Cl)c2C1 |  |
| 7.01 | Cc1ccccc1-c1c2c(nn1Cc1cccc(O)c1)CN(C)C2 |  |
| 7.11 | CN1Cc2nn(Cc3cccc(O)c3)c(-c3ccccc3F)c2C1 | inhibition in vivo at 1 mg/kg [2]: 35.6% |
| 7.22 | CN1Cc2nn(Cc3cccc(-c4cccc(C(N)=O)c4)c3)c(-c3ccccc3F)c2C1 | half-life [3]: 0.8 h; bioavailability [4]: 16.4%; Cmax [5]: 150 ng/mL; half-life [6]: 0.49 h; AUC(0-inf) [7]: 520 ng·h/mL; inhibition in vivo at 1 mg/kg [2]: 86.8%; AUC(0-inf) [8]: 341 ng·h/mL |
| 7.31 | CNCc1cc(-c2ccccc2F)n(S(=O)(=O)c2cccnc2)c1 [VONOPRAZAN] | AUC(0-inf) [9]: 99 ng·h/mL; Cmax [10]: 17 ng/mL; bioavailability [11]: 10%; half-life [12]: 1.2 h; AUC(0-inf) [13]: 27 ng·h/mL; half-life [14]: 1.3 h; inhibition in vivo at 1 mg/kg [2]: 91% |
